What follows are compounds tested against T1, recombinant human mPGES-1 (Homo sapiens, UniProt O14684) (assay: mPGES-1 inhibition test (microsomes, HTRF detection of PGE2)). Conditions: not given.
T1 construct: made in house; host or cells: Rosetta E. coli (microsomal/membrane fraction)
T1 sequence (O14684 1-152): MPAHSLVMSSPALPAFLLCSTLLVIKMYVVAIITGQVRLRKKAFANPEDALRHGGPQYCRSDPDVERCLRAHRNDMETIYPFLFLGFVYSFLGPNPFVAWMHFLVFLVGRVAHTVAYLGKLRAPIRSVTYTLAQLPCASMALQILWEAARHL
Format: biochemical
Experimental: Microsomes from Rosetta E. coli bacteria expressing recombinant human mPGES-1 is dissolved in 0.1 M KPi pH 7.4 buffer containing 2.5 mM GSH. 50 μl of the enzyme is subsequently dispensed in a 384-well plate. 0.5 μl of the inhibitor dissolved in DMSO at is thereafter added to each well and incubated for 25 minutes at room temperature.
Subsequently, 2 μl of PGH2 dissolved in an appropriate solvent is added to each well and after one minute the acidified stop solution containing FeCl2 is added. 4 μl of the total volume is transferred to a separate plate and diluted 750-fold in two separate steps before HTRF detection of PGE2.
The HTRf detection is performed by the use of a commercially available kit from CisBio essentially according to the manufacturer's protocol. Briefly, 10 μl of the diluted sample is transferred to a white 384-well plate. 5 μl of d2 and 5 μl Eu3+-Cryptate labeled anti-PGE2 is added to each well containing samples by the use of a Multidrop. The plate is covered with a plastic self-adhesive film, centrifuged at 1200 rpm for 1 minute and subsequently stored at +4° C. over night.
After over night incubation the fluorescence is measured by the use of an appropriate microplate reader. The fluorescence of europium cryptate, and d2 are measured using the following excitation and emission wavelength, europium cryptate: λmax^ex=307 nm, λmax^em=620 nm and d2: λmax^ex=620 nm, λmax^em=665 nm), respectively. The extent of the specific FRET is measured as a ratio of the emission intensity at 665 nm vs. that at 620 nm. A standard curve using synthetic PGE2 is used to quantify the amount of PGE2 in unknown samples.

SMILES | inhibition at 10 µM [%]
Cn1c(Nc2c(F)cccc2Cl)nc2cc(C(=O)Nc3ccc(Br)cc3)ncc21 [Example 361, N-(4-Bromophenyl)-2-(2-chloro-6-fluoro-phenylamino)-3-methyl-3H-imidazo[4,5-c]pyridine-6-carboxamide] | 100
Cn1c(Nc2c(Cl)cccc2Cl)nc2cc(C(=O)Nc3cc(C(F)(F)F)ccn3)ncc21 [Example 364, 2-(2,6-Dichlorophenylamino)-3-methyl-N-(4-trifluoromethyl-pyridin-2-yl)-3H-imidazo[4,5-c]pyridine-6-carboxamide] | 100
Cn1c(Nc2c(Cl)cccc2Cl)nc2cc(C(=O)Nc3ccc(Br)cc3)ncc21 [Example 365, N-(4-Bromophenyl)-2-(2,6-dichlorophenylamino)-3-methyl-3H-imidazo[4,5-c]pyridine-6-carboxamide] | 100
O=C(Nc1cc(C(F)(F)F)ccn1)c1cc2[nH]c(Nc3c(Cl)cncc3Cl)nc2cn1 [Example 366, 2-(3,5-Dichloropyridin-4-ylamino)-N-(4-trifluoromethyl-pyridin-2-yl)-1H-imidazo[4,5-c]pyridine-6-carboxamide] | 100
Cn1c(Nc2c(F)cccc2Cl)nc2cc(C(=O)NC3CCC(C)(C)CC3)ncc21 [Example 389, 2-(2-Chloro-6-fluorophenylamino)-N-(4,4-dimethylcyclohexyl)-3-methyl-3H-imidazo[4,5-c]-pyridine-6-carboxamide] | 100
Cn1c(Nc2c(F)cccc2Cl)nc2cc(C(=O)NC3CCC4(CC3)CC4)ncc21 [Example 417, 2-(2-Chloro-6-fluoro-phenylamino)-3-methyl-N-(spiro[2.5]octan-6-yl)-3H-imidazo[4,5-c]pyridine-6-carboxamide] | 100
Cn1c(Nc2c(Cl)cccc2Cl)nc2cc(C(=O)N[C@H]3CC[C@H](C(F)(F)F)CC3)ncc21 [Example 424, 2-(2,6-Dichlorophenylamino)-3-methyl-N-((1r,4r)-4-trifluoromethyl-cyclohexyl)-3H-imidazo[4,5-c]pyridine-6-carboxamide] | 100
Cn1c(Nc2c(Cl)cccc2Cl)nc2cc(C(=O)NC3CCC4(CC3)CC4)ncc21 [Example 425, 2-(2,6-Dichlorophenylamino)-3-methyl-N-(spiro[2.5]octan-6-yl)-3H-imidazo[4,5-c]-pyridine-6-carboxamide] | 100
O=C(NC1CCC2(CC1)CC2)c1cc2[nH]c(Nc3c(Cl)cccc3Cl)nc2cn1 [Example 451, 2-(2,6-Dichlorophenylamino)-N-(spiro[2.5]octan-6-yl)-1H-imidazo[4,5-c]pyridine-6-carboxamide] | 99
Cn1c(Nc2c(Cl)cncc2Cl)nc2cc(C(=O)Nc3ccc(Br)cc3)ncc21 [Example 472, N-(4-Bromophenyl)-2-(3,5-dichloropyridin-4-ylamino)-3-methyl-3H-imidazo[4,5-c]-pyridine-6-carboxamide] | 96
O=C(NCc1ccccc1C(F)(F)F)c1cc2[nH]c(Nc3c(Cl)cccc3Cl)nc2cn1 [Example 477, 2-(2,6-Dichlorophenylamino)-N-(2-trifluoromethyl-benzyl)-1H-imidazo[4,5-c]pyridine-6-carboxamide] | 97
O=C(Nc1cc(OC2CCOC2)ccn1)c1cc2[nH]c(Nc3c(Cl)cccc3Cl)nc2cn1 (stereo not drawn) [Example 495, 2-(2,6-Dichlorophenylamino)-N-(4-(tetrahydrofuran-3-yl-oxy)-pyridin-2-yl)-1H-imidazo[4,5-c]pyridine-6-carboxamide] | 86
Cn1c(Nc2c(F)cccc2Cl)nc2cc(C(=O)NCc3ncccc3C(F)(F)F)ncc21 [Example 504, 2-(2-Chloro-6-fluorophenylamino)-3-methyl-N-((3-trifluoromethyl-pyridin-2-yl)-methyl)-3H-imidazo[4,5-c]pyridine-6-carboxamide] | 100

Second part, the compound after the results:

inhibition at 10 µM [%] | SMILES
100 | CC1(C)CCC(NC(=O)c2cc3nc(Nc4c(Cl)cccc4Cl)[nH]c3cn2)CC1 [Example 83, 2-(2,6-Dichloro-phenylamino)-3H-imidazo[4,5-c]pyridine-6-carboxylic acid (4,4-dimethyl-cyclohexyl)-amide]
100 | O=C(NC1CCCCC1)c1cc2[nH]c(Nc3c(Cl)cccc3Cl)nc2cn1 [Example 137, 2-(2,6-Dichloro-phenylamino)-3H-imidazo[4,5-c]pyridine-6-carboxylic acid-cyclohexyl-amide]
100 | Cn1c(Nc2c(F)cccc2Cl)nc2cc(C(=O)Nc3cc(C(F)(F)F)ccn3)ncc21 [Example 360, 2-(2-Chloro-6-fluoro-phenylamino)-3-methyl-N-(4-trifluoromethyl-pyridin-2-yl)-3-H-imidazo[4,5-c]pyridine-6-carboxamide]
100 | CC(C)(C)c1ccnc(NC(=O)c2cc3[nH]c(Nc4c(Cl)cccc4Cl)nc3cn2)c1 [Example 396, N-(4-tert.-Butyl-pyridin-2-yl)-2-(2,6-dichlorophenylamino)-1H-imidazo[4,5-c]pyridine-6-carboxamide]
100 | Cn1c(Nc2c(Cl)cccc2Cl)nc2cc(C(=O)NC3CCC(C)(C)CC3)ncc21 [Example 406, 2-(2,6-Dichlorophenylamino)-N-(4,4-dimethylcyclohexyl)-3-methyl-3H-imidazo[4,5-c]pyridine-6-carboxamide]
100 | O=C(Nc1cc(C(F)(F)F)ccn1)c1cc2[nH]c(Nc3c(Cl)cccc3Cl)nc2cn1 [Example 414, 2-(2,6-Dichlorophenylamino)-N-(4-trifluoromethyl-pyridin-2-yl)-1H-imidazo[4,5-c]pyridine-6-carboxamide]
98 | Cc1cnc(NC(=O)c2cc3[nH]c(Nc4c(Cl)cccc4Cl)nc3cn2)cc1Cl [Example 427, N-(4-Chloro-5-methyl-pyridin-2-yl)-2-(2,6-dichlorophenylamino)-1H-imidazo[4,5-c]pyridine-6-carboxamide]
100 | Cn1c(Nc2c(F)cccc2Cl)nc2cc(C(=O)N[C@H]3CC[C@H](C(F)(F)F)CC3)ncc21 [Example 431, 2-(2-Chloro-6-fluorophenylamino)-3-methyl-N-((1r,4r)-4-trifluoromethyl-cyclohexyl)-3H-imidazo[4,5-c]pyridine-6-carboxamide]
100 | O=C(Nc1cc(OC2CCCC2)ccn1)c1cc2[nH]c(Nc3c(Cl)cccc3Cl)nc2cn1 [Example 440, N-(4-(Cyclopentyloxy)pyridin-2-yl)-2-(2,6-dichlorophenylamino)-1H-imidazo[4,5-c]pyridine-6-carboxamide]
100 | Cn1c(Nc2c(F)cccc2Cl)nc2cc(C(=O)NC3CCCCC3)ncc21 [Example 444, 2-(2-Chloro-6-fluorophenylamino)-N-cyclohexyl-3-methyl-3H-imidazo[4,5-c]-pyridine-6-carboxamide]
98 | O=C(Nc1cc(C2CC2)ccn1)c1cc2[nH]c(Nc3c(Cl)cccc3Cl)nc2cn1 [Example 445, N-(4-Cyclopropylpyridin-2-yl)-2-(2,6-dichlorophenylamino)-1H-imidazo[4,5-c]-pyridine-6-carboxamide]
94 | Cn1c(Nc2c(Cl)cccc2Cl)nc2cc(C(=O)Nc3cc(C4CC4)ccn3)ncc21 [Example 462, N-(4-Cyclopropylpyridin-2-yl)-2-(2,6-dichlorophenylamino)-3-methyl-3H-imidazo[4,5-c]pyridine-6-carboxamide]
100 | Cn1c(Nc2c(Cl)cncc2Cl)nc2cc(C(=O)NC3CCC(C)(C)CC3)ncc21 [Example 478, 2-(3,5-Dichloropyridin-4-ylamino)-N-(4,4-dimethylcyclohexyl)-3-methyl-3H-imidazo[4,5-c]pyridine-6-carboxamide]
98 | O=C(N[C@H]1CC[C@H](C(F)(F)F)CC1)c1cc2[nH]c(Nc3c(Cl)cccc3Cl)nc2cn1 [Example 481, 2-(2,6-Dichlorophenylamino)-N-((1r,4r)-4-trifluoromethyl-cyclohexyl)-1H-imidazo[4,5-c]pyridine-6-carboxamide]
98 | Cn1c(Nc2c(Cl)cncc2Cl)nc2cc(C(=O)Nc3cc(C(F)(F)F)ccn3)ncc21 [Example 482, 2-(3,5-Dichloropyridin-4-ylamino)-3-methy-N-(4-trifluoromethyl-pyridin-2-yl)-3H-imidazo[4,5-c]pyridine-6-carboxamide]
100 | Cn1c(Nc2c(Cl)cccc2Cl)nc2cc(C(=O)NC3CCCCC3)ncc21 [Example 487, N-Cyclohexyl-2-(2,6-dichlorophenylamino)-3-methyl-3H-imidazo[4,5-c]pyridine-6-carboxamide]

Same assay, conditions: percentage inhibition of mPGES-1 at 10 μM (unless otherwise specified)

% inhib. [%] | SMILES
97 | Cn1c(Nc2c(Cl)cccc2Cl)nc2cc(C(=O)Nc3ccc(Br)cc3)cnc21 [Example 463]

Source: patent US8598190B2, “3H-imidazo [4, 5-C] pyridine-6-carboxamides as anti-inflammatory agents” (Boehringer Ingelheim International GmbH, priority 2008, dated 2013)
